The values that follow come from patent US4849441A, “Isoindolin-1-one derivative and antiarrhythmic agent” (Kyowa Hakko Kogyo Co., Ltd., priority 1986, dated 1989).

In data set [1] the test system is chloroform-induced arrhythmia in mice. The experiment in a line: Mice chloroform-induced arrhythmia test. Type of data set: in vivo, mice of dd strain. The note with it: oral administration, effective if < 720 pulses/min, Probit method; for ED50: Mus musculus, po, read-out: Antiarrhythmic Activity A: chloroform induced arrhythmia in mice (ED50). As to the method: The antiarrhythmic activity was examined by arrhythmia test induced with chloroform in mice and by arrhythmia test induced by ligation of dog coronary artery. (A) Mice chloroform-induced arrhythmia test: Using mice of dd strain, weighing 18 to 22 g and fasting and abstaining from water for 4 to 5 hours, an antiarrhythmic effect was evaluated in accordance with the method of Block [Life Science, 28, 2623 (1981)]. That is, after orally administrating each compound, the mice were put in a chloroform atmosphere and taken out after respiratory standstill. Electrocardiogram was measured by the standard limb induction method; in the case when frequent pulse exceeding 720 pulses/min. is continued for 30 seconds or longer, it was judged ineffective and in the case of a heart beat number being less than 720 pulses/min., it was judged effective. ED50 was determined by the Probit method.

The subject of data set [2] is coronary artery ligation-induced arrhythmia in dog. The data set is described as follows: Dog coronary artery ligation-induced arrhythmia test. Type of data set: in vivo, dogs. The note with it: Canis lupus familiaris, intravenous, 16 h after ligation, effective if 50% or more of total pulses restored to sinus rhythm, dose effective in 50% or more cases, read-out: Antiarrhythmic Activity B: coronary artery ligation induced arrhythmia in dog (MED). The source says: The antiarrhythmic activity was examined by arrhythmia test induced with chloroform in mice and by arrhythmia test induced by ligation of dog coronary artery.
(B) Dog coronary artery ligation-induced arrhythmia test:
Using dogs weighing 7 to 12 kg, coronary artery ligation-induced arryhthmia occurred in accordance with the Harris method [Circulation, 1, 1318 (1950)]. Namely, the left fifth costa was subjected to thoraco-laparotomy.After the pericardium was incised, the left fore descending branch of the coronary artery was exfoliated around the first side branch and ligated. Sixteen hours after, a test compound was intravenously administered to dogs with multiple ventricular arrhythmic pulses being 90% or more than the total pulses. Then, electrocardiogram was recorded without anesthesia under free movement, and a case where 50% or more of the total pulses was restored to sinus rhythm was judged effective.

Data set [3] has as its system dd, male mice. The experiment in a line: Acute toxicity test (mortality 7 days after administration). The note with it: mortality at 7 days, minimum lethal dosage. The format is in vivo. As to the method:
Groups each consisting of three dd, male mice having body weights of 20±1 g were used, and the compound of the present invention was intraperitoneally administered. Mortality 7 days after the administration was observed and the minimum lethal dosage (MLD) was determined.

Data set [4] deals with dd, male mice. Described as above. The format is in vivo. The note with it: mortality at 7 days, minimum lethal dosage. This is another data set of the same source.

On to `CCN(CC)CCN1C(=O)c2ccccc2C1c1ccc(N(C)C)cc1` (stereo not drawn) [Compound 18, 2-(2-Diethylaminoethyl)-3-(4-dimethylaminophenyl)-isoindolin-1-one], for which the ED50 in data set [1] stood at 23 mg/kg. Further, the minimal effective dose in data set [2] was 2.5 mg/kg. The “Acute Toxicity (MLD) i.p.” value in data set [3] came out at 50 mg/kg. Besides, the “Acute Toxicity (MLD) p.o.” value in data set [4] is reported as 100 mg/kg.

Regarding `CCN(CC)CCCCN1C(=O)c2ccccc2C1c1ccccc1N` (stereo not drawn) [Compound 4, 3-(2-Aminophenyl)-2-(4-diethylaminobutyl)isoindolin-1-one], the median effective dose (ED50) in data set [1] came out at 47 mg/kg. Also, the minimal effective dose in data set [2] turned out to be 1.25 mg/kg. For the same compound, in data set [3], the “Acute Toxicity (MLD) i.p.” value is on record as over 100 mg/kg. In addition, the “Acute Toxicity (MLD) p.o.” value in data set [4] came to 200 mg/kg.

For the compound `CCN1CCCC1CN1C(=O)c2ccccc2C1c1cc(C#N)ccc1N` (stereo not drawn) [Compound 35], in data set [1], the median effective dose (ED50) lay within 50 to 100 mg/kg. The “Acute Toxicity (MLD) i.p.” value in data set [3] was over 100 mg/kg. Moreover, in data set [4], the “Acute Toxicity (MLD) p.o.” value is reported as over 300 mg/kg.

In the case of `CCN(CC)CCN1C(=O)c2ccccc2C1c1cccc(C(C)C)c1N` (stereo not drawn) [Compound 33, 3-(2-Amino-3-isopropylphenyl)-2-(2-diethylaminoethyl)-isoindolin-1-one], in data set [1], the median effective dose (ED50) stood at 14 mg/kg. Besides, the “Acute Toxicity (MLD) i.p.” value in data set [3] amounted to 50 mg/kg. Besides, the “Acute Toxicity (MLD) p.o.” value in data set [4] came to 100 mg/kg.

With `CCCCN(CCCC)CCCN1C(=O)c2ccccc2C1c1ccccc1N` (stereo not drawn) [Compound 5, 2-(3-dibutylaminopropyl)-3-(2-aminophenyl)isoindolin-1-one], the 50% effective dose (ED50) in data set [1] turned out to be 35 mg/kg. Also, in data set [2], the minimal effective dose turned out to be 1.25 mg/kg. Moreover, in data set [3], the “Acute Toxicity (MLD) i.p.” value stood at 25 mg/kg. Besides, the “Acute Toxicity (MLD) p.o.” value in data set [4] came out at 100 mg/kg.

Consider `CCN(CC)CCN1C(=O)c2ccccc2C1c1ccccc1NC` (stereo not drawn) [Compound 7, 2-(2-Diethylaminoethyl)-3-(2-methylaminophenyl)isoindolin-1-one], for which the ED50 in data set [1] stood at 14 mg/kg. For the same compound, the minimal effective dose in data set [2] was over 2.5 mg/kg. Further, the “Acute Toxicity (MLD) i.p.” value in data set [3] was 50 mg/kg. Moreover, the “Acute Toxicity (MLD) p.o.” value in data set [4] is on record as 50 mg/kg.

For the compound `CCNc1ccccc1C1c2ccccc2C(=O)N1CCN(CC)CC` (stereo not drawn) [Compound 9, 2-(2-Diethylaminoethyl)-3-(2-ethylaminophenyl)isoindolin-1-one], in data set [1], the ED50 is 63 mg/kg. For the same compound, the minimal effective dose in data set [2] is over 5 mg/kg. Also, in data set [3], the “Acute Toxicity (MLD) i.p.” value was over 100 mg/kg. Moreover, the “Acute Toxicity (MLD) p.o.” value in data set [4] stood at 200 mg/kg.

`CCN(CC)CCN1C(=O)c2ccccc2C1c1cc(Cl)ccc1N` (stereo not drawn) [Compound 11, 3-(2-Amino-5-chlorophenyl)-2-(2-diethylaminoethyl)-isoindolin-1-one]: in data set [1], the ED50 is over 100 mg/kg. The minimal effective dose in data set [2] is 5 mg/kg. In addition, the “Acute Toxicity (MLD) i.p.” value in data set [3] is given as over 100 mg/kg. In data set [4], the “Acute Toxicity (MLD) p.o.” value is recorded as over 300 mg/kg.

Regarding `CN(C)CCCN1C(=O)c2ccccc2C1c1ccccc1N` (stereo not drawn) [Compound 2], the ED50 in data set [1] is over 100 mg/kg. In addition, the minimal effective dose in data set [2] stood at 5 mg/kg. The “Acute Toxicity (MLD) i.p.” value in data set [3] was over 100 mg/kg. Besides, the “Acute Toxicity (MLD) p.o.” value in data set [4] is over 300 mg/kg.

Turning to `CC(C)NCCN1C(=O)c2ccccc2C1c1cc(C#N)ccc1N` (stereo not drawn) [Compound 36, 3-(2-Amino-5-cyanophenyl)-2-(2-isopropylaminoethyl)-isoindolin-1-one], the ED50 in data set [1] is 50 to 100 mg/kg. In data set [3], the “Acute Toxicity (MLD) i.p.” value is on record as over 100 mg/kg. In addition, the “Acute Toxicity (MLD) p.o.” value in data set [4] is listed as over 300 mg/kg.

Consider `CCN(CC)CCN1C(=O)c2ccccc2C1c1ccccc1N(C)C` (stereo not drawn) [Compound 8, 2-(2-Diethylaminoethyl)-3-(2-dimethylaminophenyl)isoindolin-1-one], for which, in data set [1], the median effective dose (ED50) turned out to be 36 mg/kg. For the same compound, the minimal effective dose in data set [2] was 2.5 mg/kg. In addition, the “Acute Toxicity (MLD) i.p.” value in data set [3] was 50 mg/kg. In addition, the “Acute Toxicity (MLD) p.o.” value in data set [4] is reported as 100 mg/kg.

For `CCN(CC)CCN1C(=O)c2ccccc2C1c1cc(C#N)ccc1N` (stereo not drawn) [Compound 31, 3-(2-Amino-5-cyanophenyl)-2-(2-diethylaminoethyl)-isoindolin-1-one], in data set [1], the ED50 is 30 mg/kg and the “Antiarrhythmic Activity A: chloroform induced arrhythmia in mice (ED50)” value came out at 19 mg/kg. Also, the minimal effective dose in data set [2] is 2.5 mg/kg.

On to `CCN(CC)CCN1C(=O)c2ccccc2C1c1cc(C)cc(C)c1N` (stereo not drawn) [Compound 26, 3-(2-Amino-3,5-dimethylphenyl)-2-(2-diethylaminoethyl)-isoindolin-1-one], for which, in data set [1], the 50% effective dose (ED50) was under 25 mg/kg. Also, in data set [3], the “Acute Toxicity (MLD) i.p.” value was determined as 100 mg/kg. For the same compound, the “Acute Toxicity (MLD) p.o.” value in data set [4] stood at 200 mg/kg.

For the compound `CCN(CC)CCN1C(=O)c2ccccc2C1c1c(C)ccc(C)c1N` (stereo not drawn) [Compound 17, 3-(2-Amino-3,6-dimethylphenyl)-2-(2-diethylaminoethyl)-isoindolin-1-one], in data set [1], the 50% effective dose (ED50) is under 25 mg/kg. In addition, the “Acute Toxicity (MLD) i.p.” value in data set [3] is over 100 mg/kg. Further, in data set [4], the “Acute Toxicity (MLD) p.o.” value is listed as 300 mg/kg.

Turning to `CCN(CC)CCN1C(=O)c2ccccc2C1c1cc(F)ccc1N` (stereo not drawn) [Compound 32, 3-(2-Amino-5-fluorophenyl)-2-(2-diethylaminoethyl)-isoindolin-1-one], the ED50 in data set [1] lay within 25 to 50 mg/kg. Further, the “Acute Toxicity (MLD) i.p.” value in data set [3] was over 100 mg/kg. Moreover, the “Acute Toxicity (MLD) p.o.” value in data set [4] is recorded as 300 mg/kg.

`CCNCCN1C(=O)c2ccccc2C1c1cc(C#N)ccc1N` (stereo not drawn) [Compound 38, 3-(2-Amino-5-cyanophenyl)-2-(2-ethylaminoethyl)-isoindolin-1-one]: in data set [1], the median effective dose (ED50) stood at 50 mg/kg. Further, in data set [2], the minimal effective dose was found to be 5 mg/kg. In data set [3], the “Acute Toxicity (MLD) i.p.” value is recorded as over 100 mg/kg. Further, in data set [4], the “Acute Toxicity (MLD) p.o.” value is over 300 mg/kg.

For `CCN(CC)CCN1C(=O)c2ccccc2C1c1ccccc1N` (stereo not drawn) [Compound 1, 3-(2-Aminophenyl)-2-(2-diethylaminoethyl)isoindolin-1-one], the 50% effective dose (ED50) in data set [1] stood at 33 mg/kg. Moreover, the minimal effective dose in data set [2] is 1.25 mg/kg. The “Acute Toxicity (MLD) i.p.” value in data set [3] was over 100 mg/kg. The “Acute Toxicity (MLD) p.o.” value in data set [4] is given as over 300 mg/kg.

For `CCN(CC)CCCN1C(=O)c2ccccc2C1c1ccccc1N` (stereo not drawn) [Compound 3, 3-(2-Aminophenyl)-2-(3-diethylaminopropyl)isoindolin-1-one], the ED50 in data set [1] was under 100 mg/kg. Further, the minimal effective dose in data set [2] amounted to 2.5 mg/kg. The “Acute Toxicity (MLD) i.p.” value in data set [3] is over 100 mg/kg. Further, the “Acute Toxicity (MLD) p.o.” value in data set [4] is 100 mg/kg.

With `CC(C)NCCN1C(=O)c2ccccc2C1c1ccccc1N` (stereo not drawn) [Compound 6, 3-(2-Aminophenyl)-2-(2-isopropylaminoethyl)isoindolin-1-one], in data set [1], the median effective dose (ED50) amounted to 36 mg/kg. Besides, in data set [2], the minimal effective dose was 2.5 mg/kg. In addition, the “Acute Toxicity (MLD) i.p.” value in data set [3] is given as over 100 mg/kg. The “Acute Toxicity (MLD) p.o.” value in data set [4] is given as 300 mg/kg.

Broadly, the ED50 is the dose at which the effect has come halfway, by size or by number of responders.
